Counter-ions that a name gives are not always drawn.
What was measured:
[1] = tested on: patients undergoing a variety of general surgical procedures; assay: Example 18: general surgical procedures (laparotomy, laparoscopic cholecystectomy, colectomy), pain and opioid use; format: in vivo, human; conditions: ITT; for Repeated Measures Pain Intensity on Movement 0-72 Hours, LS Mean: All Timepoints 0-72 hr, LogPad scores only
[2] = tested on: patients undergoing a variety of general surgical procedures; assay: Example 18: safety, Holter monitoring; format: in vivo, human
Text: Patient safety was carefully monitored throughout the trial with traditional assessments of AEs, vital signs, routine laboratory testing, and Holter monitoring (i.e., continuous recording of electrocardiogram) for 3 days after dosing. Special attention was given to cardiovascular and neurological AE, as bupivacaine toxic effects are manifest in those two body systems. In addition, special assessments were done to monitor surgical wound condition and healing over the 30 days of the trial. There were no consistent treatment-related effects on vital signs. Changes in serum chemistry and hematological parameters were those expected after major surgery, with few consistent differences between treatment groups. Cardiac safety was carefully studied using Holter monitoring for 72 hours post-dose, starting about one hour before surgery. In addition, baseline 24-hour ambulatory Holter monitoring was done after the screening visit.

pregnant rabbits = assay: Embryo-fetal development study, subcutaneous, rabbits; format: in vivo
Method: There are no studies conducted with Formulation A in pregnant women. […] Based on animal data, advise pregnant women of the potential risks to a fetus. [see Data]
Bupivacaine hydrochloride was administered subcutaneously to rats at doses of 4.4, 13.3, & 40 mg/kg and to rabbits at doses of 1.3, 5.8, & 22.2 mg/kg during the period of organogenesis (implantation to closure of the hard palate). The high doses are approximately 0.6 times the daily maximum recommended human dose (MRHD) of 660 mg/day on a mg/m^2 body surface area (BSA) basis.

[3] = tested on: subjects undergoing elective outpatient laparoscopic cholecystectomy; assay: Example 17: laparoscopic cholecystectomy study, safety (surgical site and CNS-related adverse reactions, TEAEs); format: in vivo; conditions: for Fatal TEAE: Part 2
Method: In two studies in patients undergoing laparoscopic cholecystectomy, Formulation A or bupivacaine HCl was administered into the laparoscopic port incisions at the end of surgery. In one of these studies, a subset of patients received either Formulation A or saline placebo. In a study of patients undergoing laparoscopically-assisted colectomy, Formulation A or vehicle placebo was administered predominantly into the hand port incision at the end of surgery. In a study of patients undergoing laparotomy, Formulation A or bupivacaine HCl was administered into the full length of the surgical incision at the end of surgery. Table 4.7 and Table 4.8 present, respectively, surgical-site adverse reactions and early-occurring central nervous system (CNS)-related adverse reactions from the laparoscopic cholecystectomy study that included a saline placebo control arm.
The trial included: 1) a randomized, parallel-group, double-blind, placebo-controlled study (Part 1) and a randomized, parallel-group, double-blind, bupivacaine HCl active-controlled study (Part 2). The trial evaluated the efficacy and safety of Formulation A (bupivacaine, benzyl alcohol, sucrose acetate isobutyrate) as a delivery system in subjects undergoing elective outpatient laparoscopic cholecystectomy.
The study was conducted as 2 separate parts (Part 1 and Part 2).
The fascia was closed, as required, prior to instillation of Formulation A. Formulation A was instilled into the incisions via a blunt-tipped syringe-tip applicator just prior to skin closure. After administration, the skin was closed in standard fashion with subcuticular sutures and cyanoacrylate skin adhesive or Steri-Strips™.
In Part 1, subjects randomized to saline-placebo were administered sterile normal saline 5 mL (0.9% sodium chloride injection, USP) by direct instillation into the surgical incisions. The 5 mL of placebo was divided between the 4 ports according to a protocol-specified dosing schedule, to provide coverage of all surgical incisions. The fascia was closed, as required, prior to instillation of the placebo composition. The placebo composition was instilled into the incisions via a blunt-tipped syringe-tip applicator just prior to skin closure. After administration, the skin was closed in standard fashion with subcuticular sutures and cyanoacrylate skin adhesive or Steri-Strips™.
In Part 2, subjects randomized to active control were administered bupivacaine HCl 0.5% 15 mL (75 mg; without epinephrine) by infiltration into the margins of the surgical incisions with a 22 gauge needle. The 15 mL of bupivacaine HCl composition was divided between the 4 ports according to a protocol-specified dosing schedule, to provide coverage of all surgical incisions. The fascia was closed, as required, prior to administration of the bupivacaine HCl active control composition. After infiltration, the skin was closed in standard fashion with subcuticular sutures and cyanoacrylate skin adhesive or Steri-Strips™
There were no fatalities in this trial. […]

With `CCCCN1CCCCC1C(=O)Nc1c(C)cccc1C` (stereo not drawn) [Bupivacaine HCl] the “Repeated Measures Pain Intensity on Movement 0-72 Hours, LS Mean” value ([1]; Cohort 1 (Laparotomy)) was 5.9, the “Total Morphine-equivalent Opioid Medication Use, MEDD 0-72 hours, Median” value ([1]; Cohort 1 (Laparotomy)) was 63.0 mg and the “Repeated Measures Pain Intensity on Movement 0-72 Hours, LS Mean” value ([1]; Cohort 2 (Laparoscopic Cholecystectomy)) was 3.6. The “At Least One Cardiovascular TEAE” value ([2]; Cohort 1, % of subjects) was “(39%)”, the “At Least One Neurological TEAE” value ([2]; Cohort 1, % of subjects) was “(22%)” and the “At Least One Non-Opioid TEAE” value ([2]; Cohort 1, % of subjects) was “(94%)”. The “At Least One Serious TEAE” value ([2]; Cohort 1, % of subjects) was “(22%)”, the “At Least One TEAE” value ([2]; Cohort 1, % of subjects) was “(94%)” and the “At Least One Wound Infection TEAE” value ([2]; Cohort 1, % of subjects) was “(11%)”. The “Maximum Relationship to Study Drug: Not Related” value ([2]; Cohort 1, % of subjects) was “(72%)”, the “Maximum Relationship to Study Drug: Related” value ([2]; Cohort 1, % of subjects) was “(22%)” and the “Maximum Severity: Mild” value ([2]; Cohort 1, % of subjects) was “(11%)”. The “Maximum Severity: Moderate” value ([2]; Cohort 1, % of subjects) was “(61%)”, the “Maximum Severity: Severe” value ([2]; Cohort 1, % of subjects) was “(22%)” and the “At Least One Cardiovascular TEAE” value ([2]; Cohort 1, number of subjects) was 7. For the same molecule, the “At Least One Neurological TEAE” value ([2]; Cohort 1, number of subjects) was 4, the “At Least One Non-Opioid TEAE” value ([2]; Cohort 1, number of subjects) was 17 and the “At Least One Serious TEAE” value ([2]; Cohort 1, number of subjects) was 4. The “At Least One Serious and Related TEAE” value ([2]; Cohort 1, number of subjects) was 0, the “At Least One Severe and Related TEAE” value ([2]; Cohort 1, number of subjects) was 0 and the “At Least One TEAE” value ([2]; Cohort 1, number of subjects) was 17. The “At Least One TEAE Leading to Study Discontinuation” value (shortened to “At Least One TEAE Leading”) ([2]; Cohort 1, number of subjects) was 0, the “At Least One Wound Infection TEAE” value ([2]; Cohort 1, number of subjects) was 2 and the Deaths ([2]; Cohort 1, number of subjects) was 0. For the same molecule, the “Maximum Relationship to Study Drug: Not Related” value ([2]; Cohort 1, number of subjects) was 13, the “Maximum Relationship to Study Drug: Related” value ([2]; Cohort 1, number of subjects) was 4 and the “Maximum Severity: Mild” value ([2]; Cohort 1, number of subjects) was 2. For the same molecule, the “Maximum Severity: Moderate” value ([2]; Cohort 1, number of subjects) was 11, the “Maximum Severity: Severe” value ([2]; Cohort 1, number of subjects) was 4 and the “At Least One Cardiovascular TEAE” value ([2]; Cohort 2, % of subjects) was “(10%)”. The “At Least One Neurological TEAE” value ([2]; Cohort 2, % of subjects) was “(50%)”, the “At Least One Non-Opioid TEAE” value ([2]; Cohort 2, % of subjects) was “(95%)” and the “At Least One Serious TEAE” value ([2]; Cohort 2, % of subjects) was “(5%)”. For the same molecule, the “At Least One Severe and Related TEAE” value ([2]; Cohort 2, % of subjects) was “(5%)”, the “At Least One TEAE” value ([2]; Cohort 2, % of subjects) was “(100%)” and the “At Least One TEAE Leading” value ([2]; Cohort 2, % of subjects) was “(5%)”. For the same molecule, the “At Least One Wound Infection TEAE” value ([2]; Cohort 2, % of subjects) was “(5%)”, the “Maximum Relationship to Study Drug: Not Related” value ([2]; Cohort 2, % of subjects) was “(50%)” and the “Maximum Relationship to Study Drug: Related” value ([2]; Cohort 2, % of subjects) was “(50%)”. The “Maximum Severity: Mild” value ([2]; Cohort 2, % of subjects) was “(10%)”, the “Maximum Severity: Moderate” value ([2]; Cohort 2, % of subjects) was “(65%)” and the “Maximum Severity: Severe” value ([2]; Cohort 2, % of subjects) was “(25%)”. For the same molecule, the “At Least One Cardiovascular TEAE” value ([2]; Cohort 2, number of subjects) was 2, the “At Least One Neurological TEAE” value ([2]; Cohort 2, number of subjects) was 10 and the “At Least One Non-Opioid TEAE” value ([2]; Cohort 2, number of subjects) was 19. For the same molecule, the “At Least One Serious TEAE” value ([2]; Cohort 2, number of subjects) was 1, the “At Least One Serious and Related TEAE” value ([2]; Cohort 2, number of subjects) was 0 and the “At Least One Severe and Related TEAE” value ([2]; Cohort 2, number of subjects) was 1. The “At Least One TEAE” value ([2]; Cohort 2, number of subjects) was 20, the “At Least One TEAE Leading” value ([2]; Cohort 2, number of subjects) was 1 and the “At Least One Wound Infection TEAE” value ([2]; Cohort 2, number of subjects) was 1. The Deaths ([2]; Cohort 2, number of subjects) was 0, the “Maximum Relationship to Study Drug: Not Related” value ([2]; Cohort 2, number of subjects) was 10 and the “Maximum Relationship to Study Drug: Related” value ([2]; Cohort 2, number of subjects) was 10. For the same molecule, the “Maximum Severity: Mild” value ([2]; Cohort 2, number of subjects) was 2, the “Maximum Severity: Moderate” value ([2]; Cohort 2, number of subjects) was 13 and the “Maximum Severity: Severe” value ([2]; Cohort 2, number of subjects) was 5. For the same molecule, the “Embryo-fetal deaths at the high dose” value (pregnant rabbits; 22.2 mg/kg subcutaneous, organogenesis, rabbits) was “An increase in embryo-fetal deaths was observed”, the “Fetal No Observed Adverse Effect Level” value (pregnant rabbits; female, rabbit, in vivo) was “approximately 0.2 times the MRHD” and the “Fatal TEAE” value ([3]; % of subjects) was “(0.0%)”. The “Fatal TEAE” value ([3]; number of subjects) was 0, the “Surgical site: Drainage from surgical incision(s)” value ([3]; human, in vivo) was “(4.1%)” and the “Surgical site: Surgical site bleeding” value ([3]; human, in vivo) was “(16.2%)”. The “Surgical site: Surgical site infection” value ([3]; human, in vivo) was “(0.7%)”, the “Surgical site: Visible bruising” value ([3]; human, in vivo) was “(70.9%)” and the “Surgical site: Wound dehiscence” value ([3]; human, in vivo) was “(2.0%)”. The “Surgical site: Wound hematoma” value ([3]; human, in vivo) was “(1.4%)”, the “Treated subjects with treatment-emergent serious adverse events” value ([3]; human, in vivo) was 3 subjects and the “Constipation (Constipation), (%)” value ([3]; human, in vivo, 6 h) was “(6.8%)”. For the same molecule, the “Dizziness (Dizziness), (%)” value ([3]; human, in vivo, 6 h) was “(20.9%)”, the “Dysgeusia (Metallic taste in mouth), (%)” value ([3]; human, in vivo, 6 h) was “(14.9%)” and the “Headache (Headache), (%)” value ([3]; human, in vivo, 6 h) was “(12.2%)”. For the same molecule, the “Hypoesthesia (Numbness), (%)” value ([3]; human, in vivo, 6 h) was “(0.7%)”, the “Nausea (Nausea), (%)” value ([3]; human, in vivo, 6 h) was “(38.5%)” and the “Paresthesia (Tingling), (%)” value ([3]; human, in vivo, 6 h) was “(4.1%)”. For the same molecule, the “Pruritus (Itching), (%)” value ([3]; human, in vivo, 6 h) was “(3.4%)”, the “Somnolence (Drowsiness), (%)” value ([3]; human, in vivo, 6 h) was “(32.4%)” and the “Vomiting (Vomiting), (%)” value ([3]; human, in vivo, 6 h) was “(10.1%)”.

From patent US12433877B2, “Sustained release drug delivery systems and related methods” (Durect Corporation, priority 2021, dated 2025)
